{"source": "patent US10849904B2", "about": "“Methods for treatment of retinal disease by photoreceptor gene expression modulation” (University of Washington, priority 2015, dated 2020)", "key": {"[1]": {"system": "Human retinal explants from 113 day post-conception fetuses", "test": "Human fetal retinal explant culture, qPCR for RHO expression", "assay_type": "cell-based", "conditions": "10 μM, vs DMSO", "protocol": "Nr2e3 loss-of-function mutations lead to a reduction in rod gene expression. To determine whether the same was true for PR1 (FIG. 6D), explant cultures of P12 retina as above were treated and assayed for other rod photoreceptor genes. After 2 days in culture, PR1 decreased the expression of the rod specific genes Nrl, Nr2e3, Rho, Gnat1, and Pde6b compared to DMSO treatment by qPCR analysis (FIG. 6C). […] To determine the dose-response relationship between PR1 concentration and expression of rod genes, retinas from P12 mice were explanted in media containing DMSO or 0.1, 1, 5, or 10 μM PR1 for 2-3 days and assayed Nrl, Nr2e3, and Rho expression by qPCR. […] PR1 was tested to determine whether it could cause a reduction in Rho expression in human rod photoreceptors as well. Pairs of 113 day post-conception retinas were explanted in media with DMSO or 10 μM PR1 for 7 or 23 days. […]\nRNA was isolated using TRIzol (Invitrogen) and cDNA was synthesized using the iScript cDNA synthesis kit (Bio-Rad) following an intervening DNase treatment with RQ1 RNase-free DNase (Promega). SSO Fast (Bio-Rad) was used for quantitative real-time PCR. For analysis, values were normalized to Gapdh and ΔΔCt between DMSO and compound-treated samples was expressed as percent of DMSO treated controls (100*2^ΔΔCt). […]"}, "retinas from P0 mice": {"system": "retinas from P0 mice", "test": "P0 mouse retinal explants: Western blot, qPCR, immunohistochemistry", "assay_type": "cell-based", "conditions": "1 μM", "protocol": "Loss-of-function mutations in Nr2e3 cause an increase in the number of S-opsin+ photoreceptors and a decrease in rhodopsin expression. To determine whether PR1 has similar effects on developing photoreceptors, retinas from P0 mice were explanted in media containing DMSO or 1 μM PR1 and assessed the level of rod genes with Western blots and qPCR after two to five days in vitro (FIG. 7A). […] Expression of additional genes was tested using qPCR. After 2 days in culture PR1 decreased the expression of the rod specific genes Nrl, Nr2e3, Rho, and Gnat1 compared to DMSO (FIG. 7D).\nIntact retinas without RPE from mice of various strains and ages as indicated were explanted on 0.4 μm pore tissue culture inserts (Millipore) as previously described (Ueki, Y., et al., P53 is required for the developmental restriction in Muller glial proliferation in mouse retina. Glia, 2012. 60(10): p. 1579-89; Ueki, Y., et al., A transient wave of BMP signaling in the retina is necessary for Muller glial differentiation. Development, 2015. 142(3): p. 533-43. Full media (DMEM/F12 (1:1) containing 1% dialyzed FBS, 1% Pen Strep, 0.3% D+ glucose, 2% B27, and 1% N2) changes were performed every other day and small molecules were used at 0.1 μM to 10 μM. Where indicated, EdU (Invitrogen) was included in the media at 5 μg/mL and visualized by staining with the Click-iT EdU Alexa Fluor kit (Thermo Fisher Scientific). For human retinal explant cultures, tissue from 113 day post-conception fetuses was obtained from the University of Washington Birth Defects Laboratory and explanted on 0.4 μm pore tissue culture inserts (Millipore) in media (Neurobasal A with 1% FBS, 1% Pen Strep, 1% N2, 1% B27) containing 10 μM Photoregulin1 or an equal volume of DMSO.\n(§1) RNA was isolated using TRIzol (Invitrogen) and cDNA was synthesized using the iScript cDNA synthesis kit (Bio-Rad) following an intervening DNase treatment with RQ1 RNase-free DNase (Promega). SSO Fast (Bio-Rad) was used for quantitative real-time PCR. For analysis, values were normalized to Gapdh and ΔΔCt between DMSO and compound-treated samples was expressed as percent of DMSO treated controls (100*2^ΔΔCt). Two-way Student's t-tests were performed on ΔCt values.\nRetinal explants or eyecups were fixed in 4% PFA in 1×PBS for 20 minutes at room temperature and then cryoprotected in 30% sucrose in 1×PBS overnight at 4° C. Samples were embedded in OCT (Sakura Finetek), frozen on dry ice, and then sectioned at 14-16 μm on a cryostat (Leica). Slides were blocked with a solution containing 10% Normal Horse Serum (Vector Labs) and 0.5% Triton X-100 (Sigma-Aldrich) in 1×PBS for 1 hour at room temperature and then stained overnight at 4° C. with primary antibodies diluted in blocking solution. Slides were washed three times with 1×PBS the following day and then incubated in secondary antibodies (Life Technologies) diluted in blocking solution for 2 hours at room temperature, stained with DAPI (Sigma-Aldrich), washed, and coverslipped using Fluoromount-G (SouthernBiotech). An Olympus FluoView FV1000 was used for confocal microscopy.\nRetinal explants or retinas were homogenized in lysis buffer (50 mM Tris, 100 mM NaCl, 5 mM EDTA, 0.1% SDS, 1% Triton X-100, 2.5% glycerol, and 1× protease inhibitor cocktail) and equal amounts of protein samples were loaded and run in a 4-20% SDS gel (Bio-Rad). Protein was transferred to a PVDF membrane (Thermo Fisher Scientific), blocked (5% BSA and 0.1% Tween 20 in 1×PBS) and stained with primary antibodies (Supplemental Table S2) and then HRP-conjugated secondaries (Bio-Rad) diluted in blocking solution. Signals were visualized on X-ray film with SuperSignal West Dura Extended Duration Substrate (Thermo Fisher Scientific) and quantified using ImageJ software (NIH)."}, "rhodopsin": {"system": "rhodopsin", "test": "IP injection of P2 or P3 pups, rhodopsin expression by qPCR", "assay_type": "in vivo, mouse", "conditions": "pups IP 20 μl of 50 mM at P2 or P3, sacrificed the following day, vs DMSO", "protocol": "Nr2e3 is expressed in developing rods prior to birth, and so to test whether PR1 could affect prenatal rod development, wild type timed-pregnant dams were injected with 100 μl of 50 mM PR1 at E14 and E17, during peak S cone photoreceptor genesis and the onset of Nr2e3 expression (FIG. 7F). The pups were sacrificed at P0 and their retinas collected for staining and for quantifying S opsin+ photoreceptors. […] To determine if PR1 affected rhodopsin expression in developing rods in vivo, pups were injected with 20 μl of 50 mM PR1 or an equal volume of DMSO at P2 or P3 (FIG. 7I). The pups were sacrificed the following day and analyzed rhodopsin expression by qPCR.\nas §1\nFor intravitreal injections, adult mice (>P21) were anesthetized with isoflurane and injected with 1.5 μl of 10 mM PR1 using a 32-gauge Hamilton needle. […]"}, "Thrb (Trβ2)": {"system": "Thrb (Trβ2)", "test": "Cone gene expression, Thrb (FIG. 5)"}}, "data": [{"compound": "Cc1cc(C)cc(NC(=O)CCc2nc3sc4c(c3c(=O)[nH]2)CCCC4)c1", "note": "[PR1, N-(3,5-dimethylphenyl)-3-(4-oxo-5,6,7,8-tetrahydro-3H-[1]benzothiolo[2,3-d]pyrimidin-2-yl)propanamide]", "values": [{"measurement": "Rho expression", "setting": "[1]; 7 days in culture", "value": "decreased"}, {"measurement": "Rho expression", "setting": "[1]; 23 days in culture", "value": "decreased"}, {"measurement": "rhodopsin protein, Western blot", "setting": "retinas from P0 mice; 5 DIV, vs DMSO", "value": "less rhodopsin protein"}, {"measurement": "Crx expression", "setting": "retinas from P0 mice; 2 days, qPCR, vs DMSO", "value": "did not significantly decrease"}, {"measurement": "Gnat1 expression", "setting": "retinas from P0 mice; 2 days, qPCR, vs DMSO", "value": "decreased"}, {"measurement": "Gnb1 expression", "setting": "retinas from P0 mice; 2 days, qPCR, vs DMSO", "value": "did not significantly decrease"}, {"measurement": "Nr2e3 expression", "setting": "retinas from P0 mice; 2 days, qPCR, vs DMSO", "value": "decreased"}, {"measurement": "Nrl expression", "setting": "retinas from P0 mice; 2 days, qPCR, vs DMSO", "value": "decreased"}, {"measurement": "Otx2 expression", "setting": "retinas from P0 mice; 2 days, qPCR, vs DMSO", "value": "did not significantly decrease"}, {"measurement": "Rho expression", "setting": "retinas from P0 mice; 2 days, qPCR, vs DMSO", "value": "decreased"}, {"measurement": "rhodopsin immunoreactivity in sections", "setting": "retinas from P0 mice; immunohistochemistry", "value": "almost complete absence of rhodopsin immunoreactivity"}, {"measurement": "Thrb (cone gene) expression", "setting": "retinas from P0 mice; qPCR, vs DMSO", "value": "increased"}, {"measurement": "level of S opsin immunoreactivity in sectioned explants", "setting": "retinas from P0 mice; vs DMSO", "value": "overall increase"}, {"measurement": "rhodopsin expression by qPCR", "setting": "rhodopsin", "value": "decreased rhodopsin"}, {"measurement": "cone gene expression, Thrb (Trβ2)", "setting": "Thrb (Trβ2)", "value": "increase"}]}]}
